Test results as given in patent US6455284B1, “Metabolically engineered E. coli for enhanced production of oxaloacetate-derived biochemicals” (The University of Georgia Research Foundation, Inc., priority 1998, dated 2002).

Columns and labels:
[1] = molecular target: R. etli pyruvate carboxylase (Rhizobium etli, UniProt Q2K340); assay: Pyruvate carboxylase (PC) coupled enzyme assay (Payne and Morris) with E. coli cell extracts; format: biochemical; details: for effect of nicotinamide nucleotides on pyruvate carboxylase activity: cell-free crude extract from MG1655 pTrc99A-pyc, FIG. 9
Protocol: Pyruvate carboxylase (PC) enzyme assay. For pyruvate carboxylase activity measurements, 100 mL of mid-log phase culture was harvested by centrifugation at 7,000×g for 15 minutes at 4° C. and washed with 10 mL of 100 mM Tris-Cl (pH 8.0). The cells were then resuspended in 4 mL of 100 mM Tris-Cl (pH 8.0) and subsequently subjected to cell disruption by sonication. The cell debris was removed by centrifugation at 20,000×g for 15 minutes at 4° C. The pyruvate carboxylase activity was measured by the method of Payne and Morris (J. Gen. Microbiol., 59, 97-101 (1969)). In this assay the oxaloacetate produced by pyruvate carboxylase is converted to citrate by the addition of citrate synthase in the presence of acetyl CoA and 5,5-dithio-bis(2-nitro-benzoate) (DTNB) (Aldrich Chemical Co.); the homotetramer pyruvate carboxylase enzyme from R. etli requires acetyl coenzyme A for activation. The rate of increase in absorbence at 412 nm due to the presence of CoA-dependent formation of the 5-thio-2-nitrobenzoate was monitored, first after the addition of pyruvate and then after the addition of ATP. The difference between these two rates was taken as the ATP-dependent pyruvate carboxylase activity. The concentration of reaction components per milliliter of mixture was as follows: 100 mM Tris-Cl (pH 8.0), 5 mM MgCl2.H2O, 50 mM Na HCO3, 0.1 mM acetyl CoA, 0.25 mM DTNB, and 5 units (U) of citrate synthase. Pyruvate, ATP, ADP, or aspartate, were added as specified in the Results section, below. The reaction was started by adding 50 μl of cell extract. One unit of pyruvate carboxylase activity corresponds to the formation of 1 μmol of 5-thio-2-nitrobenzoate per mg of protein per minute. All enzyme assays were performed in triplicate and a standard error of less then 10% was observed. The total protein in the cell extracts was determined by the Lowry method (O. Lowry et al., J. Biol. Chem., 193, 265-275 (1951)).
R. etli pyruvate carboxylase can convert pyruvate to oxaloacetate in E. coli. To confirm that the expressed pyruvate carboxylase protein was enzymatically active in E. coli, the coupled enzyme assay developed by Payne and Morris was employed to assess pyruvate carboxylase activity (J. Payne et al., J. Gen. Microbiol., 59, 97-101 (1969)). Cell extracts containing the induced pUC18-pyc construct (MG1655 pUC18-pyc) were tested for pyruvate carboxylase activity using varying amounts of pyruvate, and compared to controls containing the pUC18 construct (MG1655 pUC18). ATP was added at a final concentration of 5 mM to the reaction mixture and pyruvate carboxylase activity was determined in the presence of increasing amounts of pyruvate. […] This value is in excellent agreement with other pyruvate carboxylase enzymes that have been studied (H. Feir et al., Can. J. Biochem., 47, 698-710 (1969); H. Modak et al., Microbiol., 141, 2619-2628 (1995); M. Scrutton et al., Arch. Biochem. Biophys., 164, 641-654 (1974)).
It is well documented that the α4 pyruvate carboxylase enzymes can be inhibited by either aspartate or adenosine diphosphate (ADP). Aspartate is the first amino acid that is synthesized from oxaloacetate and ADP is liberated when pyruvate carboxylase converts pyruvate to oxaloacetate. Pyruvate carboxylase activity in the presence of each of these inhibitors was evaluated using extracts of MG1655 cells that contained the pUC18-pyc construct. The effect of aspartate was analyzed by adding ATP and pyruvate to the reaction mixture to final concentrations of 5 mM and 6 mM, respectively, then determining pyruvate carboxylase activity in the presence of increasing amounts of aspartate. […] As expected, the pyruvate carboxylase activity was inhibited by aspartate and the specific activity decreased to approximately 43% in the presence of 8 mM aspartate. The effect of ADP was analyzed by adding pyruvate to the reaction mixture to a final concentration of 5 mM, then determining pyruvate carboxylase activity in the presence of increasing amounts of […]. […]

[2] = system: biotinylated R. etli pyruvate carboxylase expressed in E. coli; assay: Western blot of in vivo biotinylated pyruvate carboxylase in MG1655 pUC18-pyc cells grown with varying biotin; format: cell-based; details: M9 media, 37° C., mid-log
Protocol: Protein gels and Western blotting. Heat-denatured cell extracts were separated on 10% SDS-PAGE gels as per Altman et. al. (J. Bact., 155, 1130-1137 (1983)) and Western blots were carried out as per Carroll and Gherardini (Infect. Immun., 64, 392-398 (1996)). ALS225 E. coli cells containing either pUC18 or pUC18-pyc were grown to mid-log in rich media at 37° C. both in the presence and absence of IPTG. Because ALS225 contains lacIq1 on the F′, significant induction of the pUC18-pyc construct should not occur unless IPTG is added. Protein extracts were prepared, subjected to SDS PAGE, and Western blotted. Proteins which had been biotinylated in vivo were then detected using the Sigma-Blot protein detection kit (Sigma Chemical Corp., St. Louis, Mo.). The instructions of the manufacturer were followed except that during the development of the western blots the protein biotinylation step was omitted, thus allowing for the detection of only those proteins which had been biotinylated in vivo.
Effects of biotin and biotin holoenzyme synthase on the expression of biotinylated R. etli pyruvate carboxylase in E. coli. […] Proteins which had been biotinylated in vivo were then detected using the Sigma-Blot protein detection kit, as described above. […] The amount of biotinylated pyruvate carboxylase that was present in each sample was quantitated using a Stratagene Eagle Eye II Still Video. […]

[3] = substrate: CC(=O)C(=O)O; assay: Pyruvate carboxylase (PC) coupled enzyme assay (Payne and Morris) with E. coli cell extracts; format: biochemical, R. etli; details: other: MG1655 pUC18-pyc extract; ATP 5 mM; Lineweaver-Burke plot; pH 8.0
Protocol: Pyruvate carboxylase (PC) enzyme assay. For pyruvate carboxylase activity measurements, 100 mL of mid-log phase culture was harvested by centrifugation at 7,000×g for 15 minutes at 4° C. and washed with 10 mL of 100 mM Tris-Cl (pH 8.0). The cells were then resuspended in 4 mL of 100 mM Tris-Cl (pH 8.0) and subsequently subjected to cell disruption by sonication. The cell debris was removed by centrifugation at 20,000×g for 15 minutes at 4° C. The pyruvate carboxylase activity was measured by the method of Payne and Morris (J. Gen. Microbiol., 59, 97-101 (1969)). […] The rate of increase in absorbence at 412 nm due to the presence of CoA-dependent formation of the 5-thio-2-nitrobenzoate was monitored, first after the addition of pyruvate and then after the addition of ATP. […] The total protein in the cell extracts was determined by the Lowry method (O. Lowry et al., J. Biol. Chem., 193, 265-275 (1951)).
R. etli pyruvate carboxylase can convert pyruvate to oxaloacetate in E. coli. […] ATP was added at a final concentration of 5 mM to the reaction mixture and pyruvate carboxylase activity was determined in the presence of increasing amounts of pyruvate. […]

## Nc1ncnc2c1ncn2[C@@H]1O[C@H](COP(=O)(O)OP(=O)(O)O)[C@@H](O)[C@H]1O [ADP, adenosine diphosphate]
[1]
  Ki: 142 µM
[1]; MG1655 pUC18-pyc extract, pyruvate 5 mM, increasing ATP
  mode of inhibition of pyruvate carboxylase: competitive inhibitor of ATP

## Nc1ncnc2c1ncn2[C@@H]1O[C@H](COP(=O)(O)OP(=O)(O)OP(=O)(O)O)[C@@H](O)[C@H]1O [ATP]
[1]; MG1655 pUC18-pyc extract, pyruvate 5 mM, Lineweaver-Burke plot, read-out: saturation constant (Km) for expressed pyruvate carboxylase with respect to ATP
  Km: 193 µM

## NC(=O)c1ccc[n+]([C@@H]2O[C@H](COP(=O)([O-])OP(=O)(O)OC[C@H]3O[C@@H](n4cnc5c(N)ncnc54)[C@H](O)[C@@H]3O)[C@@H](O)[C@H]2O)c1 [NAD+]
[1]
  effect of nicotinamide nucleotides on pyruvate carboxylase activity: did not

## NC(=O)C1=CN([C@@H]2O[C@H](COP(=O)(O)OP(=O)(O)OC[C@H]3O[C@@H](n4cnc5c(N)ncnc54)[C@H](O)[C@@H]3O)[C@@H](O)[C@H]2O)C=CC1 [NADH, reduced nicotinamide adenine dinucleotide]
[1]
  effect of nicotinamide nucleotides on pyruvate carboxylase activity: inhibited pyruvate carboxylase

## NC(=O)c1ccc[n+]([C@@H]2O[C@H](COP(=O)([O-])OP(=O)(O)OC[C@H]3O[C@@H](n4cnc5c(N)ncnc54)[C@H](OP(=O)(O)O)[C@@H]3O)[C@@H](O)[C@H]2O)c1 [NADP+]
[1]
  effect of nicotinamide nucleotides on pyruvate carboxylase activity: did not

## NC(=O)C1=CN([C@@H]2O[C@H](COP(=O)(O)OP(=O)(O)OC[C@H]3O[C@@H](n4cnc5c(N)ncnc54)[C@H](OP(=O)(O)O)[C@@H]3O)[C@@H](O)[C@H]2O)C=CC1 [NADPH]
[1]
  effect of nicotinamide nucleotides on pyruvate carboxylase activity: did not

## N[C@@H](CC(=O)O)C(=O)O [aspartate]
[1]; read-out: pyruvate carboxylase specific activity remaining
  remaining activity at 8000 µM: ~43%

## O=C(O)CCCC[C@@H]1SC[C@@H]2NC(=O)N[C@@H]21 [biotin]
[2]
  biotin concentration sufficient to biotinylate all of the expressed pyruvate carboxylase: 50 ng/mL

B1: R. etli pyruvate carboxylase (Rhizobium etli CFN 42) (protein)
chain: MPISKILVANRSEIAIRVFRAANELGIKTVAIWAEEDKLALHRFKADESYQVGRGPHLARDLGPIESYLSIDEVIRVAKLSGADAIHPGYGLLSESPEFVDACNKAGIIFIGPKADTMRQLGNKVAARNLAISVGVPVVPATEPLPDDMAEVAKMAAAIGYPVMLKASWGGGGRGMRVIRSEADLAKEVTEAKREAMAAFGKDEVYLEKLVERARHVESQILGDTHGNVVHLFERDCSVQRRNQKVVERAPAPYLSEAQRQELAAYSLKIAGATNYIGAGTVEYLMDADTGKFYFIEVNPRIQVEHTVTEVVTGIDIVKAQIHILDGAAIGTPQSGVPNQEDIRLNGHALQCRVTTEDPEHNFIPDYGRITAYRSASGFGIRLDGGTSYSGAIITRYYDPLLVKVTAWAPNPLEAISRMDRALREFRIRGVATNLTFLEAIIGHPKFRDNSYTTRFIDTTPELFQQVKRQDRATKLLTYLADVTVNGHPEAKDRPKPLENAARPVVPYANGNGVKDGTKQLLDTLGPKKFGEWMRNEKRVLLTDTTMRDGHQSLLATRMRTYDIARIAGTYSHALPNLLSLECWGGATFDVSMRFLTEDPWERLALIREGAPNLLLQMLLRGANGVGYTNYPDNVVKYFVRQAAKGGIDLFRVFDCLNWVENMRVSMDAIAEENKLCEAAICYTGDILNSARPKYDLKYYTNLAVELEKAGAHIIAVKDMAGLLKPAAAKVLFKALREATGLPIHFHTHDTSGIAAATVLAAVEAGVDAVDAAMDALSGNTSQPCLGSIVEALSGSERDPGLDPAWIRRISFYWEAVRNQYAAFESDLKGPASEVYLHEMPGGQFTNLKEQARSLGLETRWHQVAQAYADANQMFGDIVKVTPSSKVVGDMALMMVSQDLTVADVVSPDREVSFPESVVSMLKGDLGQPPSGWPEALQKKALKGEKPYTVRPGSLLKEADLDAERKVIEKKLEREVSDFEFASYLMYPKVFTDFALASDTYGPVSVLPTPAYFYGLADGEELFADIEKGKTLVIVNQAVSATDSQGMVTVFFELNGQPRRIKVPDRAHGATGAAVRRKAEPGNAAHVGAPMPGVISRVFVSSGQAVNAGDVLVSIEAMKMETAIHAEKDGTIAEVLVKAGDQIDAKDLLAVYGG
[3]
  Km: 249 µM
